Measured values taken from patent US10444229B2, “Method of measuring insulin resistance with fatty acid combustion, and composition used herein” (OTSUKA PHARMACEUTICAL CO., LTD., priority 2013, dated 2019).
Like-named read-outs stand apart in the source and are kept apart here.

Key:
[1] = 13C breath test after intravenous administration of 13C-labeled compounds to ZDF rats (Lean and Fatty), fasting or feeding (Experimental Example 2); conditions: for Δ13C(‰) of Fatty versus Lean rats: rat, in vivo, iv; for Δ13C(‰) in expired air, fasting state versus feeding state / transition of Δ13C(‰), Lean rats versus Fatty rats: intravenous; for transition of Δ13C(‰), Lean rats versus Fatty rats: ZDF rats, fasting and feeding groups
Source text: ZDF Fatty rat is an insulin-resistant test subject animal that has a low sensitivity to insulin, and develops a pathological condition similar to human adult type II diabetes and diabetes complication. In contrast, ZDF Lean rat is a healthy subject animal having normal blood glucose level and normal sensitivity to insulin. Lean and Fatty rats (A) were divided into a fasting group in which the rats were fasted from the previous day, and a feeding group. […] For (a) to (e), expired air was collected from rats (A), and for (f), expired air was collected and rats (B) (each group, n=3).
Expired air was obtained at time points (t minutes) from a time point before the administration of solutions (a) to (f) (0 minutes) to a time point 60 minutes after the administration, and Δ^13C(‰) was determined from ^13CO2 concentration in the expired air using an expired air analysis mass spectrometer (ABCA: product of SerCon).

[2] = for Δ13C(‰) in expired air, fasting state versus feeding state: intravenous 2 ml/kg
Method: OLETF rats are type II diabetes test subject animal with obesity or/and fatty liver, and LETO rats serve as a control thereof (healthy subjects).
These rats were divided into a fasting group in which the rats were fasted from the previous day, and a feeding group. 1-^13C-sodium palmitate solution prepared in Experimental Example 2 was intravenously administered (2 ml/kg) to each group (each group, n=3). Expired air was collected at time points (t minutes) from a time point before the 1-^13C-sodium palmitate solution administration (0 minutes) to a time point 60 minutes after the administration, and Δ^13C(‰) was determined from the ^13CO2 concentration in the expired air using an expired air analysis mass spectrometer (ABCA: product of SerCon).

[3] = fasted Zucker rats
Method: 1-^13C-sodium palmitate was dissolved in hydrous ethanol at about 80° C. at a concentration of 500 μmol/mL.
Rats (male, Zucker rat) were used as experimental animals. The rats that were fasted from the previous day of the test were divided into two groups: oral administration group and intravenous administration group (each group, n=3), and the 1-^13C-sodium palmitate solution (20 μmol/2 mL) prepared in (1) was orally and intravenously administered at a dosage of 2 mL/kg. Expired air was collected at each time point (t minutes) from a time point before administration (0 minutes) to a time point 180 minutes after the administration, and Δ^13C(‰) was determined from the concentration of ^13CO2 in the expired air using an expired air analysis mass spectrometer (ABCA: product of SerCon).
The value of Δ^13C(‰) was determined by measuring a concentration ratio ^13CO2/^12CO2 in the expired air (δ^13C value) at each time point (t minutes) from a time point before the 1-^13C-sodium palmitate administration (0 minutes) to a time point after the administration, and calculating the Δ^13C(‰) value from the difference between the δ^13C value (δ^13Ct) at each point (t) and the δ^13C value before the administration (δ^13Co) (δ^13Ct-δ^13Co) (the same calculation is used in the Experimental Examples below).

[4] = ZDF Fatty vs Lean and OLETF vs LETO, 11 weeks
Method: These rats were divided into a fasting group in which the rats were fasted from the previous day, and a feeding group. 1-^13C-sodium palmitate solution prepared in Experimental Example 2 was intravenously administered (2 ml/kg) to each group (each group, n=3).

[5] = ZDF Fatty rats (insulin-resistant)
[6] = ZDF Lean rats (healthy subjects)

Structure (SMILES): CCCCCCCCCCC[13C](=O)O [1-^13C-lauric acid]
- Δ13C(‰) of Fatty versus Lean rats [1]: higher than that of the healthy subjects (Lean)

Structure (SMILES): CCCCCCCCCCCCCCC[13C](=O)[O-].[Na+] [1-^13C-sodium palmitate]
- Δ13C(‰) in expired air, fasting state versus feeding state ([2]; LETO rats (healthy subjects)): higher in the fasting (hunger) state than in the feeding state
- Δ13C(‰) in expired air, fasting state versus feeding state ([2]; OLETF rats (insulin-resistant, liver disease)): higher in the fasting (hunger) state than in the feeding state
- Δ13C(‰) of OLETF versus LETO rats ([2]; fasting group and feeding group, period until 15 minutes after intravenous administration): higher than that of the healthy subjects (LETO)
- excretion in expired air [3]: excreted in expired air as ^13CO2
- time of Δ13C(‰) peak in expired air after administration ([3]; intravenous administration, 2 mL/kg of 20 μmol/2 mL): ≤ 10 min
- transition of Δ13C(‰) in expired air ([3]; oral administration, 2 mL/kg of 20 μmol/2 mL, 0-180 minutes): little variation among respective measurement times
- transition of Δ13C(‰), insulin-nonresistant hyperinsulinemia test subject versus healthy subject ([4]; fasting state): little difference
- Δ13C(‰) value, insulin-nonresistant hyperinsulinemia test subject versus healthy subject ([4]; feeding state): significantly lower than that of the healthy subject
- Δ13C(‰) in expired air, fasting state versus feeding state [1, 5]: higher in the fasting (hunger) state than in the feeding state
- Δ13C(‰) in expired air, fasting state versus feeding state [1, 6]: higher in the fasting (hunger) state than in the feeding state
- Δ13C(‰) of Fatty versus Lean rats [1]: higher than that of the healthy subjects (Lean)

Structure (SMILES): C[13C](=O)[O-].[Na+] [1-^13C-sodium acetate, reference compound]
- transition of Δ13C(‰), Lean rats versus Fatty rats [1]: little difference between the results of Lean rats and the results of Fatty rats

Structure (SMILES): CCCCCCCC/C=C\CCCCCCC[13C](=O)O [1-^13C-oleic acid]
- Δ13C(‰) in expired air, fasting state versus feeding state [1, 5]: higher in the fasting (hunger) state than in the feeding state
- Δ13C(‰) in expired air, fasting state versus feeding state [1, 6]: higher in the fasting (hunger) state than in the feeding state
- Δ13C(‰) of Fatty versus Lean rats [1]: higher than that of the healthy subjects (Lean)

Structure (SMILES): CCCCCCC[13C](=O)[O-].[Na+] [1-^13C-sodium octanoate, reference compound]
- transition of Δ13C(‰), Lean rats versus Fatty rats [1]: little difference between the results of Lean rats and the results of Fatty rats
